“And” between values parts separate entries of the source, which are not always exact repeats. Equal entries are not always repeated.
What was measured:
Assay type in all cases: cell-based
Micrococcus aloeverae = experiment: Suppression of metabolism of 14-methylhexadecanoic acid on cotton fabric
Protocol: (§1) A methanol solution in which 14-methylhexadecanoic acid (SIGMA-ALDRICH) was dissolved was added dropwise to 3 cm×3 cm pieces of sterilized plain-weave cotton fabric to make it adhered to the fabric. The adhesion amount of 14-methylhexadecanoic acid was set to 10 μg per piece of the plain-weave cotton fabric (100 μg/fabric g).
(§2) Further, a methanol solution in which each metabolism controlling agent was dissolved was prepared and added dropwise to the fabric to which 14-methylhexadecanoic acid adhered, and it was thereafter dried for an hour. This fabric was placed in a sterilized screw tube bottle No. 3 (Maruemu Corporation) and 100 μl of the bacterial suspension was inoculated thereto, and culture was carried out under 37° C.; conditions for 21 hours.
(§3) 3 ml of methanol was added to the screw tube bottle after culture, and extraction was carried out under ultrasonic irradiation for 30 minutes (20° C.). The extraction liquid was mixed with a (trimethylsilyl)diazomethane hexane solution (FUJIFILM Wako Pure Chemical Corporation) at 9:1 (volume ratio) and left overnight under room temperature and dark place conditions. After that, 14-methylhexadecanoic acid remaining on the fabric was quantified by GC. The quantification conditions for GC are as follows. • GC: Agilent 7890A • GC column: Agilent DB-1 30 m×250 μm×0.25 μm • Temperature rise condition: 50° C. (held for 3 minutes)-(10° C./min)-300° C. (held for 5 minutes) • Sample injection volume: 1 μl • Split ratio: 1:12 • Detector: FID
(§4) The residual amount of 14-methylhexadecanoic acid after culture on the fabric to which the metabolism controlling agent was added was quantified, and the ratio of the residual amount to that of 14-methylhexadecanoic acid in the case of adding no metabolism controlling agent (control) was calculated as a metabolism suppression rate (%). The higher a numerical value thereof is, the more the metabolism is suppressed. Note that the metabolism suppression rate was determined by the following formula:
(§5) Metabolism suppression rate(%)=[1−(100−A)/(100−B)]×100 • A: residual amount of 14-methylhexadecanoic acid of example or comparative example (μg/fabric g) • B: residual amount of 14-methylhexadecanoic acid of control (μg/fabric g)
The metabolism of 14-methylhexadecanoic acid by bacteria of the genus Micrococcus was tested in the same manner as in example 1.
In this example, Micrococcus aloeverae (strain isolated from clothing) was used as a microorganism.
Further, in this example, a bacterial suspension of 10^7 (CFU/ml) prepared by using an SCD liquid medium (NIHON PHARMACEUTICAL CO., LTD.) diluted to 1/10 with ion exchange water was used as a bacterial suspension.
(§6) Note that, in this example, C12OH (1-dodecanol) was used as the metabolism controlling agent.

[1] = test system: Escherichia coli (NBRC3972); experiment: Suppression of metabolite 4-methylhexanoic acid from 14-methylhexadecanoic acid
Protocol: (§7) After culture on fabric prepared in the same manner as in the above (1), 3 ml of methanol was added, and extraction was carried out under ultrasonic irradiation for 30 minutes (20° C.). The extraction liquid was mixed with (a 1000 ppm methanol solution of) an ADAM reagent of Funakoshi Co., Ltd. at 1:1 (volume ratio) and left overnight under room temperature and dark place conditions. After that, 4-methyl-3-hexenoic acid as a metabolite from 14-methylhexadecanoic acid was quantified by HPLC. The quantification conditions are as follows.
(§8) The production amount of 4-methyl-3-hexenoic acid after culture on the fabric to which each metabolism controlling agent was added was quantified, and the ratio of the production amount to that of 4-methyl-3-hexenoic acid in the case of adding no metabolism controlling agent (control) was calculated as a metabolite suppression rate (%). The higher a numerical value thereof is, the more the metabolism is suppressed. Note that the metabolite suppression rate was determined by the following formula:
Metabolite suppression rate(%)=100×[(D−C)/D] • C: production amount of metabolite of example or comparative example (μg/fabric g) • D: production amount of metabolite of control (μg/fabric g)
The metabolism of 14-methylhexadecanoic acid by bacteria of the genus Escherichia (Escherichia coli) was tested in the same manner as in example 1.
In this example, Escherichia coli (NBRC3972) was used as a microorganism.
Further, in this example, a bacterial suspension of 10^6 (CFU/ml) prepared by using an NB liquid medium diluted to 1/10 with ion exchange water was used as a bacterial suspension.
Further, in this example, 4-methylhexanoic acid was quantified as a metabolite from 14-methylhexadecanoic acid, and the metabolite suppression rate was determined in the same manner as in example 1.
as §6

Rhodotorula mucilaginosa = experiment: Suppression of metabolism of 14-methylhexadecanoic acid on cotton fabric; details: agent 250 μg/fabric g
Protocol: as §1, §2, §3, §4, §5
The metabolism of 14-methylhexadecanoic acid by yeast of the genus Rhodotorula was tested in the same manner as in example 1.
In this example, Rhodotorula mucilaginosa (strain isolated from clothing) was used as a microorganism.
Further, in this example, the bacteria were precultured under conditions of a PDA agar medium (Difco), 30° C.; and 48 hours.
Further, in this example, a bacterial suspension of 10^7 (CFU/ml) prepared by using a PDB liquid medium (Difco) diluted to 1/10 with ion exchange water was used as a bacterial suspension.

Moraxella osloensis [2] = experiment: Examination example: suppression of metabolite 4-methyl-3-hexenoic acid, components (a) and (b)/(b′); details: single agent 100 μg/fabric g
Protocol: as §7
Eluent: acetonitrile 61% (v/v), water 39% (v/v) Column temperature: 40° C. Sample injection volume: 10 μL Flow rate: 1.0 mL/min
as §8, with “the” for “each”, “formula. In references 1-1, 2-1, 3-1 and 4-1, which are controls, the metabolite suppression rate is 0%.” for “formula:”
Metabolite suppression rate(%)=100×[(D−C)/D] • C: production amount of metabolite of reference or examination example (μg/fabric g) • D: production amount of metabolite of control (μg/fabric g)

Moraxella osloensis [3] = experiment: Examination example: measurement of viable bacterial count; details: single agent 100 μg/fabric g
Protocol: After culture on fabric prepared in the same manner as in the above (1), 9 mL of an LP diluent (manufactured by NIHON PHARMACEUTICAL CO., LTD.) was added, and the extraction of the bacteria was carried out under ultrasound for 10 minutes. The extraction liquid was poured and mixed to an SCD-LP agar medium (NIHON PHARMACEUTICAL CO., LTD.), and culture was thereafter carried out at 37° C.; for a day. The number of colonies obtained on each piece of the fabric was counted, and a common logarithm value thereof was measured as the viable bacterial count. […] In addition, the […], the more the viable bacterial count of the microorganism is maintained.

SMILES: CCCCCCCCCCCCO [Example C12OH, 1-dodecanol]
- Metabolism suppression rate (%) (Micrococcus aloeverae; agent 100 μg/fabric g): 16.7%
- Metabolism suppression rate (%) (Micrococcus aloeverae; agent 250 μg/fabric g): 73% and 55.0%
- Metabolism suppression rate (%) (Micrococcus aloeverae; agent 500 μg/fabric g): 85.8%
- Metabolism suppression rate (%) (Micrococcus aloeverae; agent 1000 μg/fabric g): 86.9%
- Metabolite suppression rate (%) ([1]; agent 500 μg/fabric g): 74% and 41%
- Metabolite suppression rate (%) ([1]; agent 1000 μg/fabric g): 93% and 65%
- Metabolite suppression rate (%) ([1]; agent 2000 μg/fabric g): 77%
- Metabolite suppression rate (%) ([1]; agent 3000 μg/fabric g): 80%
- Metabolism suppression rate (%) (Rhodotorula mucilaginosa): 68%
- Product of metabolism of branched fatty acid: Metabolite suppression rate (%) (Moraxella osloensis [2]): 20%
- Product of metabolism of branched fatty acid: Production amount (μg/fabric g) (Moraxella osloensis [2]): 3.5 μg/fabric g
- Viable bacterial count (Log (cfu/fabric cm^2)) (Moraxella osloensis [3]): 6.2 Log (cfu/fabric cm^2)

Source: patent US20220408724A1, “METHOD FOR CONTROLLING METABOLISM OF BRANCHED FATTY ACID” (KAO CORPORATION, priority 2019, published 2022)
